Key:
[1] = target: T1, Vasoactive intestinal polypeptide receptor 1 (Homo sapiens, UniProt P32241); type: cell membranes, Membrane; details: ht-29; further: in other assays of this panel Not Active means under 50% inhibition at 10 µM
T1 sequence (P32241 whole entry): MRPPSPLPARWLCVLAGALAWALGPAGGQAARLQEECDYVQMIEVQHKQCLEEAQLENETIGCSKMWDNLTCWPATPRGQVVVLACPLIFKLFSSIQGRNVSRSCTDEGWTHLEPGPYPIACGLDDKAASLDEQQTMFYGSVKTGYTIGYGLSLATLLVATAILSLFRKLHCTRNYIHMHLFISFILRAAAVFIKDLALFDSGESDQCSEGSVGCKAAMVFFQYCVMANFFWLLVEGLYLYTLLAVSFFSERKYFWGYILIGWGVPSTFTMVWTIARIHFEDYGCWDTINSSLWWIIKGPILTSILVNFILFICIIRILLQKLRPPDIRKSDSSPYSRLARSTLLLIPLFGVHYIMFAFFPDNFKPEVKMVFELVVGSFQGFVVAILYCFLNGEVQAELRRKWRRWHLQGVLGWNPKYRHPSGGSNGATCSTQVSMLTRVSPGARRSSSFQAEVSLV

[2] = target: T2, Alpha-2C adrenergic receptor (Homo sapiens, UniProt P18825); assay: DRUGMATRIX: Adrenergic Alpha-2C radioligand binding (ligand: [3H] MK-912); type: cell membranes, Sf9, Membrane; details: sf9; on IC50: call rule not given here
T2 sequence (P18825 whole entry): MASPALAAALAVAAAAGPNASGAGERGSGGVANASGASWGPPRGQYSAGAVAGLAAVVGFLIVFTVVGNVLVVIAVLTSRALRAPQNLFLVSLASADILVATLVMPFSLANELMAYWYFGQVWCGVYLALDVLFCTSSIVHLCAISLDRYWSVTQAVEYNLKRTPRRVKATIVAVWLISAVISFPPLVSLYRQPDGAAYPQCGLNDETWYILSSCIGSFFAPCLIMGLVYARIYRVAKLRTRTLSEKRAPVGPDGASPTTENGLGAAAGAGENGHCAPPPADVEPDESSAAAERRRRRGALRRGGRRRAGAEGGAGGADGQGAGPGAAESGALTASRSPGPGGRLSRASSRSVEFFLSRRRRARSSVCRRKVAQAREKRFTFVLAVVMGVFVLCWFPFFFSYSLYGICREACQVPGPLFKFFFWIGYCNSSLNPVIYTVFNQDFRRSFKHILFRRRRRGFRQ

B2 bradykinin receptor = target: T3, B2 bradykinin receptor (Homo sapiens, UniProt P30411); type: cell membranes, Membrane; details: chem-1; further: in other assays of this panel Not Active means under 50% inhibition at 10 µM
T3 sequence (P30411 whole entry): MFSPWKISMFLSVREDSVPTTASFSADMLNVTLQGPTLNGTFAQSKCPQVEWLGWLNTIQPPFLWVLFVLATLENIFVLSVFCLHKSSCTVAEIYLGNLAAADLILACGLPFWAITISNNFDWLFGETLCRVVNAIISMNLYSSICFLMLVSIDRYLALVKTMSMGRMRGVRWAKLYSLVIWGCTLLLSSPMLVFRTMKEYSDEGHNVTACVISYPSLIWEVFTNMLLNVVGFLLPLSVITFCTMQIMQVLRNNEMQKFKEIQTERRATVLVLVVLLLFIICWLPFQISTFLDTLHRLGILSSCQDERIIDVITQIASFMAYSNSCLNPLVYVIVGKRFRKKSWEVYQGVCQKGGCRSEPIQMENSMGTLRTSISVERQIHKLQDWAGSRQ

Endothelin-1 receptor = target: T4, Endothelin-1 receptor (Homo sapiens, UniProt P25101); type: cell membranes, Membrane; details: cho-k1; further: in other assays of this panel Not Active means under 50% inhibition at 10 µM
T4 sequence (P25101 whole entry): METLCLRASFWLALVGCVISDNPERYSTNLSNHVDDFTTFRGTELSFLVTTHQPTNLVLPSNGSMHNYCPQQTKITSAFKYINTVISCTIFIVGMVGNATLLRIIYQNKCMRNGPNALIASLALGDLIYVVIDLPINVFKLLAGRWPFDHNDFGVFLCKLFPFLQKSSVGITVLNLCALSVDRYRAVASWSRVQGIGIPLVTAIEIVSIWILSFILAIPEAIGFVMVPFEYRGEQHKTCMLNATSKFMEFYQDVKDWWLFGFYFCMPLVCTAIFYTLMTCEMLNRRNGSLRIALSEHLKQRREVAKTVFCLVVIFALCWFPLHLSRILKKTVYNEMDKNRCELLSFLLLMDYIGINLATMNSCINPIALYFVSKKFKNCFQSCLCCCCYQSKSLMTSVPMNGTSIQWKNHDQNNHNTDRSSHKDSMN

Adenosine receptor A1 = target: T5, Adenosine receptor A1 (Homo sapiens, UniProt P30542); type: cell membranes, Membrane; details: cho;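 further: radioligand binding assay at the adenosine A1 receptor, with DPCPX serving as the labelled ligand; in other assays of this panel Not Active means under 50% inhibition at 10 µM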
T5 sequence (P30542 whole entry): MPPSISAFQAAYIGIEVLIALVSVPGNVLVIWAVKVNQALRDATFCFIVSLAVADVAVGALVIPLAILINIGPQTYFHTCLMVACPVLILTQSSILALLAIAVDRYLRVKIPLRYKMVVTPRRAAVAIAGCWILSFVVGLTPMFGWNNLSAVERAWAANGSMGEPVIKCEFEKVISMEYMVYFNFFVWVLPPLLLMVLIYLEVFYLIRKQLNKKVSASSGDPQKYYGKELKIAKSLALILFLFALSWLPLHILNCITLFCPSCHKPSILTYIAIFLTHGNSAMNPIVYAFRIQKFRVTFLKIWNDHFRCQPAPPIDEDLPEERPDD

Cathepsin G = target: T6, Cathepsin G (Homo sapiens, UniProt P08311); type: tissue-based; details: neutrophil
T6 sequence (P08311 whole entry): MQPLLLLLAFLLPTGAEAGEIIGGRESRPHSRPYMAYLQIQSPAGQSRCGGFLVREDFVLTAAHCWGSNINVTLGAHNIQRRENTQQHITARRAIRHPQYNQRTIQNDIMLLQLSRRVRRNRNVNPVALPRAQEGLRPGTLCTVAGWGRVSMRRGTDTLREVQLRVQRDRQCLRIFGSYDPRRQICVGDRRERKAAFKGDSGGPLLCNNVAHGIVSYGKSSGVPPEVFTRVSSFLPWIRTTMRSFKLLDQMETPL

OC(CCN1CCCCC1)(c1ccccc1)C1CCCCC1 (stereo unspecified) [TRIHEXYPHENIDYL]
Not Active: IC50 [1] | IC50 [2] | IC50 (B2 bradykinin receptor) | IC50 (Endothelin-1 receptor) | IC50 (Adenosine receptor A1) | IC50 (Cathepsin G)

Cc1cc2cc3c(C)cc(=O)oc3c(C)c2o1 [TRIOXSALEN]
Not Active: IC50 [1] | IC50 [2] | IC50 (B2 bradykinin receptor) | IC50 (Endothelin-1 receptor) | IC50 (Adenosine receptor A1) | IC50 (Cathepsin G)

CCCC(CCC)C(=O)O [VALPROIC ACID]
Not Active: IC50 [1] | IC50 [2] | IC50 (B2 bradykinin receptor) | IC50 (Endothelin-1 receptor) | IC50 (Adenosine receptor A1) | IC50 (Cathepsin G)

CCC1=C[C@@H]2CN(C1)Cc1c([nH]c3ccccc13)[C@@](C(=O)OC)(c1cc3c(cc1OC)N(C)[C@H]1[C@@](O)(C(=O)OC)[C@H](OC(C)=O)[C@]4(CC)C=CCN5CC[C@]31[C@@H]54)C2 [VINORELBINE]
Not Active: IC50 [1] | IC50 [2] | IC50 (B2 bradykinin receptor) | IC50 (Endothelin-1 receptor) | IC50 (Adenosine receptor A1) | IC50 (Cathepsin G)

CADMIUM DICHLORIDE
Not Active: IC50 [1] | Ki [1] | IC50 [2] | Ki [2] | IC50 (B2 bradykinin receptor) | Ki (B2 bradykinin receptor) | IC50 (Endothelin-1 receptor) | Ki (Endothelin-1 receptor) | IC50 (Adenosine receptor A1) | Ki (Adenosine receptor A1) | IC50 (Cathepsin G) | Ki (Cathepsin G)

From ChEMBL document CHEMBL1909046, “DrugMatrix in vitro pharmacology data”
